Experimental data taken from publication PMC6440977 (Nature Communications, 2019).

Target: T. brucei PKAR-PKAC1 holoenzyme (Trypanosoma brucei, UniProt Q9GU80)
Assay: biochemical
Assay type: biochemical

Structure (SMILES): N#Cc1cn([C@@H]2O[C@H](CO)[C@@H](O)[C@H]2O)c2ncnc(O)c12 [7-CN-7-C-Ino, 7-Cyano-7-deazainosine]
- EC50: 6.5 ± 4.6 nM
